Measurements reported in US20080057138A1, “RESTORATIVE SKIN CREAM” (Telford Holdings Ltd., priority 2006, published 2008).

Tests used:
[1] = tested on: sunburns; conditions: cited from earlier work; for SPF equivalent: topical application, background section, no trial described
[2] = tested on: photo ageing; experiment: Example 2: side effects in patients treated for photo ageing, topical tretinoin versus formulations of the invention; type: in vivo, human
Description: In a trial conducted by a practicing dermatologist, involving 267 patients undergoing treatment for photo ageing using slowly increasing strengths of topical tretinoin, side effects were frequent and prolonged. An average of 3.7 reactions sufficiently severe to cause discontinuation of therapy were experienced and each reaction required discontinuation of treatment for an average of 7.7 days. Only 14% of patients were able to be treated without side effects at the commercially available strength of 0.1% tretinoin. […] The side effects were mild and were ameliorated by re-introducing the regime as alternate day treatment in the areas of irritation. Only 1.5% of patients were unable to tolerate the regime.

[3] = tested on: photo aging; experiment: open label proof of concept trials over 5 years in 300 patients, reversal of photo aging; type: in vivo, human
Description: Animal models have an inherent limitation and are not necessarily directly applicable to humans. For example, various mammalian species have different metabolic characteristics. In particularly, most animals have the capacity to manufacture their own vitamin C.
Indeed, the studies appear to indicate a synergetic effect between vitamins C and E in the morning, and vitamins A and E in the evening.

[4] = tested on: sunburns; experiment: ability to prevent sunburns (SPF equivalent) after topical application; type: in vivo, human
Description: Each of the three vitamins A, C and E, and complexes thereof, when topically applied individually at therapeutic levels, markedly increases the ability of the skin to absorb free radicals. Each vitamin molecule, as a measurement of this effect, adds the ability to absorb 2 MEDs (minimal erythema dose) of energy or a total of 6 MEDS if all three vitamins are present simultaneously. […] SPF (Sun Protection Factor) is a recognized measure of ultraviolet screen ability. Simultaneous application of a tri-vitamin regimen of vitamins A, C and E can result in an SPF equivalent of 24. Use of the three vitamins together in effective amounts results in enhanced protection of the skin against sunburn and, unlike sunscreens per se, persists in effect until the molecules are consumed by the body. […] The enhancement of photo protection by the tri-vitamin therapy according to the invention is particularly important as a solar spectrum (UVA, UVB) sun protectant. The effects of simultaneous use of the tri-vitamin regime and sunscreens are additive.
One measure of the activity has been to assess the ability to prevent sunburns.

[5] = tested on: sunburns; experiment: Example 4: UVB sunburn study in 34 volunteers, test compounds applied before or after 1 or 3 MEDs of UVB; type: in vivo, human; conditions: for prevention of the development of sunburns: applied daily for 3 days before 1 or 3 MEDs of UVB; for treatment of the induced sunburns, review of the data of the left side: left side of the back
Experimental: In a study conducted by a practicing dermatologist, after informed consent, 34 volunteers were treated in the following manner. On the left side of the back, one inch squares were marked and treated daily for 3 days with 12 test compounds including a control of vehicle and a commercial identified sunscreen. After determining the MED (minimal erythema dose) for each subject, each subject was treated with one or 3 MEDs of UVB on both sides of the back. On the right side, 18 test compounds were applied including a vehicle control post sunburn at 0 hours, 8 hours, 24 and 48 hours. Measurements of the severity of the burns were recorded as the end point at 8, 24 and 48 hours.

Compound: CC1=C(/C=C/C(C)=C/C=C/C(C)=C/CO)C(C)(C)CCC1 [retinol]
- SPF equivalent [1]: 20

Compound: CC1=C(/C=C/C(C)=C/C=C/C(C)=C/C(=O)O)C(C)(C)CCC1 [tretinoin, all-trans retinoic acid]
- average discontinuation of treatment per reaction ([2]; 267 patients): 7.7 days
- average reactions sufficiently severe to cause discontinuation of therapy ([2]; 267 patients, slowly increasing strengths): 3.7
- patients able to be treated without side effects ([2]; at commercially available strength of 0.1%): 14%

Compound: CCCCCCCCCCCCCCCC(=O)OC/C=C(C)/C=C/C=C(C)/C=C/C1=C(C)CCCC1(C)C [vitamin A palmitate, retinyl palmitate]
- frequency of irritation ([3]; compared with topical tretinoin): markedly reduced frequency of irritation
- SPF equivalent [1]: 20

Compound: O=C1O[C@H]([C@@H](O)CO)C(O)=C1O [vitamin C, L-ascorbic acid]
- effect on sunburn [4]: effective in reducing sunburns
- prevention of the development of sunburns [5]: able to prevent the development of sunburns
- treatment of the induced sunburns, review of the data of the left side [5]: significant visible improvement
- persistence of photoprotection ([1]; following a single application): at least 4 days

Compound: Cc1c(C)c2c(c(C)c1O)CC[C@@](C)(CCC[C@H](C)CCC[C@H](C)CCCC(C)C)O2 [vitamin E, α-tocopherol]
- effect on sunburn [4]: significantly ameliorated the signs and symptoms of sunburn
- clinical effect on photo aging ([3]; topical): enhance reversal of photo aging
- prevention of the development of sunburns [5]: able to prevent the development of sunburns
- treatment of sunburns ([5]; applied post sunburn): statistically visible significant treatment benefit
- treatment of the induced sunburns, review of the data of the left side [5]: significant visible improvement
